Target: T1, hyaluronan synthase (Streptococcus pyogenes, UniProt P0C0H0, K60N)
T1 construct: FLAG; made in house; host or cells: Escherichia coli SURE, plasmid pKK223-3
T1 sequence (P0C0H0 1-419 K60N): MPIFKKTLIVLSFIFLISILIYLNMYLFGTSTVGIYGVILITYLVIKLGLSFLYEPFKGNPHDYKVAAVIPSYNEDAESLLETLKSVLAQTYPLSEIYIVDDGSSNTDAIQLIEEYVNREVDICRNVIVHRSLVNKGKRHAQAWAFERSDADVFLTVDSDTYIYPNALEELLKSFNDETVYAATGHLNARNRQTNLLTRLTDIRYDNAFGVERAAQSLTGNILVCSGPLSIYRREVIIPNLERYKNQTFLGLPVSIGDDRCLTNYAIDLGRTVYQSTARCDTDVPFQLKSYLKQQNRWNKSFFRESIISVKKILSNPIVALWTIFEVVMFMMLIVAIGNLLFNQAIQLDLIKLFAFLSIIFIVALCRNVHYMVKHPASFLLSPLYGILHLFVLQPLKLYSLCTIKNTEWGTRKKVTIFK
Assay: Inhibitory concentration IC50 of uridine diphosphate against hyaluronan synthase (HPLC of hyaluronan)
Type: biochemical, Streptococcus equisimilis
Settings: hyaluronan synthase (B-1) 1.5 U/mL, 40° C., pH 7.5
Description: An enzyme reaction solution (I) containing specific amounts of polysaccharide synthase (B), ribonucleoside diphosphate-monosaccharide (A), ribonucleoside diphosphate, pH adjuster (K), and water is prepared, which is adjusted to a specific temperature and a specific pH. […]
A portion (e.g., 100 μL) of the enzyme reaction solution (I) prepared is extracted immediately after preparation and at certain time intervals (e.g., 5 min). […] Using liquid chromatography (hereinafter abbreviated as HPLC), the amount of polysaccharide in each extracted reaction solution is quantitated. An initial enzyme reaction velocity v (M/s) is calculated from the difference ΔP (ΔP=Ph−P0) in peak areas and a calibration curve based on the peak areas of the polysaccharide, wherein P0 is the peak area immediately after preparation of the enzyme reaction solution (I), and Ph is the peak area after h hour(s) from preparation. […]

For `O=c1ccn([C@@H]2O[C@H](COP(=O)(O)OP(=O)(O)O)[C@@H](O)[C@H]2O)c(=O)[nH]1` [uridine diphosphate], the IC50 was 110 µM.

From patent publication US9670514B2, “Method for producing polysaccharide” (SANYO CHEMICAL INDUSTRIES, LTD., priority 2011, dated 2017)
